The Kinase Knowledgebase extract (Sharma et al. 2016)

Target: PIK3CG (human) (UniProt P48736)
Assay: Assessment of PIK3CG Kinase Activity

PIK3CG (human), sequence (P48736 whole entry, looked up): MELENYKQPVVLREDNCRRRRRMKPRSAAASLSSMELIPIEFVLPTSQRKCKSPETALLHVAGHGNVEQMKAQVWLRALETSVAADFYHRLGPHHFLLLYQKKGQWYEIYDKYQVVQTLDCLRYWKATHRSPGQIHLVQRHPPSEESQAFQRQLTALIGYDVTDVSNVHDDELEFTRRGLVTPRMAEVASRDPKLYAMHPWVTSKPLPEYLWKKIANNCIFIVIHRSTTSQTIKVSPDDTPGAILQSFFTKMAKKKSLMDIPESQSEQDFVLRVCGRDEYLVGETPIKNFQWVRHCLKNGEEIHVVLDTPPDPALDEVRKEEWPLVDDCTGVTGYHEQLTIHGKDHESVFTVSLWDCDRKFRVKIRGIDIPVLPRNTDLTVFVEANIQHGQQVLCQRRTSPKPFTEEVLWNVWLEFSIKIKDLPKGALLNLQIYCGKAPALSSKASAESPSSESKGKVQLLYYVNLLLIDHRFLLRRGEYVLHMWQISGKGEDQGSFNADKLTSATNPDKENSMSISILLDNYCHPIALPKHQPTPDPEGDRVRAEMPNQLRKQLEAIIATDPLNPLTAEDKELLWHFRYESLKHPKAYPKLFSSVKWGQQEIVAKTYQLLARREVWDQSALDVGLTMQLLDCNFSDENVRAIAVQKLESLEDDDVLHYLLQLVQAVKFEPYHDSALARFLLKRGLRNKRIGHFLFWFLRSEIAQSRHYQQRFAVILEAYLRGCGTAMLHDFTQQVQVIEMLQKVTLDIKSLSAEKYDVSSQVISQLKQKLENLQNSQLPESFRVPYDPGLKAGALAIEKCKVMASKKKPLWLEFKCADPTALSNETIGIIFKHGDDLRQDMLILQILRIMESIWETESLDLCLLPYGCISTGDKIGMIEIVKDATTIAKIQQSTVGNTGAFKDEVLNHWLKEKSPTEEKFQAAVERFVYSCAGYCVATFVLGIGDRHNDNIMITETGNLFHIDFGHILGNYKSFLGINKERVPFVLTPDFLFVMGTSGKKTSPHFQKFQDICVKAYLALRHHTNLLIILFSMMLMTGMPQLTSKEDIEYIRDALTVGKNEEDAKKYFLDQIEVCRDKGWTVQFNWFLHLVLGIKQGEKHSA

SMILES | IC50 [µM]
CCCn1ccc(CNC(=O)Nc2nc3c(s2)-c2nc(-c4ccccc4Cl)ncc2CC3)n1 | < 0.8
CNC(=O)Nc1cccc(CNC(=O)Nc2nc3c(s2)-c2nc(-c4ccccc4Cl)ncc2CC3)c1 | < 0.8
CN(C)C(=O)CNC(=O)Nc1nc2c(s1)-c1nc(-c3ccccc3Cl)ncc1CC2 | < 0.8
O=C(NCCc1ccccn1)Nc1nc2c(s1)-c1nc(-c3ccccc3Cl)ncc1CC2 | < 0.8
COc1ccc(CCNC(=O)Nc2nc3c(s2)-c2nc(-c4ccccc4Cl)ncc2CC3)cc1OC | < 0.8
CC(=O)NCC1CCCN(C(=O)Nc2nc3c(s2)-c2nc(-c4ccccc4Cl)ncc2CC3)C1 (configuration not stated) | < 0.8
CCc1cnc(CCNC(=O)Nc2nc3c(s2)-c2nc(-c4ccccc4Cl)ncc2CC3)o1 | < 0.8
COc1cccc(CCNC(=O)Nc2nc3c(s2)-c2nc(-c4ccccc4Cl)ncc2CC3)c1 | < 0.8
CCc1csc(CCNC(=O)Nc2nc3c(s2)-c2nc(-c4ccccc4C(F)(F)F)ncc2CC3)n1 | < 0.8
COCCCNC(=O)Nc1nc2c(s1)-c1nc(-c3ccccc3Cl)ncc1CC2 | < 0.8
CCCn1cnc(CCNC(=O)Nc2nc3c(s2)-c2nc(-c4ccccc4Cl)ncc2CC3)c1 | < 0.8
O=C(NCc1cccc(N2CCNC2=O)c1)Nc1nc2c(s1)-c1nc(-c3ccccc3Br)ncc1CC2 | < 0.8
CC(C)COC(=O)N[C@H]1CCN(C(=O)Nc2nc3c(s2)-c2nc(-c4ccccc4Cl)ncc2CC3)C1 | < 0.8
COc1cccc(CCNC(=O)Nc2nc3c(s2)-c2nc(-c4ccccc4Cl)ncc2CC3)c1OC | < 0.8
O=C(NCc1ccc(CN2CCNC2=O)cc1)Nc1nc2c(s1)-c1nc(-c3ccccc3Cl)ncc1CC2 | < 0.8
CCc1csc(CCNC(=O)Nc2nc3c(s2)-c2nc(-c4ccccc4Br)ncc2CC3)n1 | < 0.8
O=C(NCCc1ccccc1)Nc1nc2c(s1)-c1nc(-c3ccccc3Cl)ncc1CC2 | < 0.8
Cn1cc(CNC(=O)Nc2nc3c(s2)-c2nc(-c4cccc(F)c4Cl)ncc2CC3)cn1 | < 0.8
O=C(NCCN1CCCC1)Nc1nc2c(s1)-c1nc(-c3ccccc3Cl)ncc1CC2 | < 0.8
NC(=O)c1cccc(CNC(=O)Nc2nc3c(s2)-c2nc(-c4ccccc4Cl)ncc2CC3)c1 | < 0.8
NC(=O)Nc1nc2c(s1)-c1nc(-c3ccccc3Cl)ncc1CC2 | < 0.8
COC(=O)N[C@H]1CCN(C(=O)Nc2nc3c(s2)-c2nc(-c4ccccc4Cl)ncc2CC3)C1 | < 0.8

SMILES | IC50 [µM]
CCN1CCC[C@@H]1CNC(=O)Nc1nc2c(s1)-c1nc(-c3ccccc3Cl)ncc1CC2 | < 0.8
O=C(NCc1ccccc1-n1cccn1)Nc1nc2c(s1)-c1nc(-c3ccccc3Cl)ncc1CC2 | < 0.8
CCN(CC)CCNC(=O)Nc1nc2c(s1)-c1nc(-c3ccccc3Cl)ncc1CC2 | < 0.8
O=C(NCCC(=O)N1CCCCC1)Nc1nc2c(s1)-c1nc(-c3ccccc3Cl)ncc1CC2 | < 0.8
O=C(NCCc1ccc2c(c1)OCO2)Nc1nc2c(s1)-c1nc(-c3ccccc3Cl)ncc1CC2 | < 0.8
O=C(NCc1cccc(C(=O)N2CCCC2)c1)Nc1nc2c(s1)-c1nc(-c3ccccc3Cl)ncc1CC2 | < 0.8
O=C(Nc1nc2c(s1)-c1nc(-c3ccccc3Cl)ncc1CC2)N1CC[C@H](NC(=O)N2CCCC2)C1 | < 0.8
CC(C)(C)c1ncc2c(n1)-c1sc(NC(N)=O)nc1CC2 | < 0.8
O=C(NCc1cccc(C(F)(F)F)c1)Nc1nc2c(s1)-c1nc(-c3ccccc3Cl)ncc1CC2 | < 0.8
O=C(NCc1ccccc1N1CCCCC1)Nc1nc2c(s1)-c1nc(-c3ccccc3Cl)ncc1CC2 | < 0.8
CC(C)(C)OCCNC(=O)Nc1nc2c(s1)-c1nc(-c3ccccc3Cl)ncc1CC2 | < 0.8
CN(C)C(=O)CCNC(=O)Nc1nc2c(s1)-c1nc(-c3ccccc3Cl)ncc1CC2 | < 0.8
CS(=O)(=O)Nc1cccc(CNC(=O)Nc2nc3c(s2)-c2nc(-c4ccccc4Cl)ncc2CC3)c1 | < 0.8
CCC(=O)N[C@H]1CCN(C(=O)Nc2nc3c(s2)-c2nc(-c4ccccc4Cl)ncc2CC3)C1 | < 0.8
CCn1cnc(CCNC(=O)Nc2nc3c(s2)-c2nc(-c4ccccc4Cl)ncc2CC3)c1 | < 0.8
O=C(Nc1nc2c(s1)-c1nc(-c3ccccc3Cl)ncc1CC2)N1CCC(N2Cc3ccccc3NC2=O)C1 (configuration not stated) | < 0.8
O=C(NC[C@@H]1CCCN1)Nc1nc2c(s1)-c1nc(-c3ccccc3Cl)ncc1CC2 | < 0.8
O=C(NCCc1nc(C2CC2)no1)Nc1nc2c(s1)-c1nc(-c3ccccc3Cl)ncc1CC2 | < 0.8
CCc1cnc(CCNC(=O)Nc2nc3c(s2)-c2nc(-c4ccccc4F)ncc2CC3)o1 | < 0.8
CC(C)NC(=O)Nc1nc2c(s1)-c1nc(-c3cccc(F)c3Cl)ncc1CC2 | < 0.8
CCn1ccc(CNC(=O)Nc2nc3c(s2)-c2nc(-c4ccccc4Cl)ncc2CC3)n1 | < 0.8
COCCNC(=O)CCNC(=O)Nc1nc2c(s1)-c1nc(-c3ccccc3Cl)ncc1CC2 | < 0.8

Now from value to compound:

IC50 [µM] | SMILES
< 0.8 | CCc1nnc(CCNC(=O)Nc2nc3c(s2)-c2nc(-c4ccccc4Cl)ncc2CC3)o1
< 0.8 | CN(C)C(=O)Nc1nc2c(s1)-c1nc(-c3ccccc3F)ncc1CC2
< 0.8 | CS(=O)(=O)c1cccc(CNC(=O)Nc2nc3c(s2)-c2nc(-c4ccccc4Cl)ncc2CC3)c1
< 0.8 | CC(C)(CNc1ncccn1)NC(=O)Nc1nc2c(s1)-c1nc(-c3ccccc3Cl)ncc1CC2
< 0.8 | CCNC(=O)CCNC(=O)Nc1nc2c(s1)-c1nc(-c3ccccc3Cl)ncc1CC2
< 0.8 | CN1CCN(Cc2cccc(NC(=O)Nc3nc4c(s3)-c3nc(-c5ccccc5Cl)ncc3CC4)c2)CC1
< 0.8 | CS(=O)(=O)N[C@H]1CCN(C(=O)Nc2nc3c(s2)-c2nc(-c4ccccc4Cl)ncc2CC3)C1
< 0.8 | CC(C)c1noc(CCNC(=O)Nc2nc3c(s2)-c2nc(-c4ccccc4Br)ncc2CC3)n1
< 0.8 | CCCn1cnc(CCNC(=O)Nc2nc3c(s2)-c2nc(-c4ccccc4Br)ncc2CC3)c1
< 0.8 | CN(C)CCCCNC(=O)Nc1nc2c(s1)-c1nc(-c3ccccc3Cl)ncc1CC2
< 0.8 | CC(C)N(C)C(=O)N[C@H]1CCN(C(=O)Nc2nc3c(s2)-c2nc(-c4ccccc4Cl)ncc2CC3)C1
< 0.8 | O=C(NCCc1ccc2c(c1)OCCO2)Nc1nc2c(s1)-c1nc(-c3ccccc3Cl)ncc1CC2
< 0.8 | CC(C)(CNc1ccc(C(C)(C)C)cc1)NC(=O)Nc1nc2c(s1)-c1nc(-c3ccccc3Cl)ncc1CC2
< 0.8 | CCNC(=O)Nc1nc2c(s1)-c1nc(-c3ccccc3F)ncc1CC2
< 0.8 | CC(C)(C)OC(=O)N1CCC(CNC(=O)Nc2nc3c(s2)-c2nc(-c4ccccc4Cl)ncc2CC3)CC1
< 0.8 | NC(=O)Nc1nc2c(s1)-c1nc(-c3cccc(F)c3Cl)ncc1CC2
< 0.8 | O=C(Nc1nc2c(s1)-c1nc(-c3ccccc3Cl)ncc1CC2)N1CC[C@@H](NC(=O)N2CCCCC2)C1
< 0.8 | CN(C)S(=O)(=O)N[C@@H]1CCN(C(=O)Nc2nc3c(s2)-c2nc(-c4ccccc4Cl)ncc2CC3)C1
< 0.8 | CCc1nnc(CCNC(=O)Nc2nc3c(s2)-c2nc(-c4ccccc4Br)ncc2CC3)o1
< 0.8 | CN(C)C(=O)Nc1nc2c(s1)-c1nc(C(C)(C)C)ncc1CC2
< 0.8 | CN(C)Cc1cccc(CNC(=O)Nc2nc3c(s2)-c2nc(-c4ccccc4Cl)ncc2CC3)c1
< 0.8 | CC(=O)N[C@H]1CCN(C(=O)Nc2nc3c(s2)-c2nc(-c4ccccc4Cl)ncc2CC3)C1
< 0.8 | CC(C)(C)OC(=O)CCNC(=O)Nc1nc2c(s1)-c1nc(-c3ccccc3Br)ncc1CC2
< 0.8 | CCOC(=O)CCNC(=O)Nc1nc2c(s1)-c1nc(-c3ccccc3Cl)ncc1CC2

IC50 [µM] | SMILES
< 0.8 | CCN1CCC2(CCN(C(=O)Nc3nc4c(s3)-c3nc(-c5ccccc5Cl)ncc3CC4)C2)C1 (configuration not stated)
< 0.8 | CC(C)N(C)C(=O)Nc1cccc(CNC(=O)Nc2nc3c(s2)-c2nc(-c4ccccc4Cl)ncc2CC3)c1
< 0.8 | CC(C)c1noc(CCNC(=O)Nc2nc3c(s2)-c2nc(-c4ccccc4Cl)ncc2CC3)n1
< 0.8 | CN(C)CCN(C)C(=O)Nc1nc2c(s1)-c1nc(-c3ccccc3Cl)ncc1CC2
< 0.8 | CN(C)CCCNC(=O)Nc1nc2c(s1)-c1nc(-c3ccccc3Cl)ncc1CC2
< 0.8 | O=C(NCCn1ccnc1)Nc1nc2c(s1)-c1nc(-c3ccccc3Cl)ncc1CC2
< 0.8 | CC(C)c1nnc(CCNC(=O)Nc2nc3c(s2)-c2nc(-c4ccccc4F)ncc2CC3)o1
< 0.8 | CC(C)(C)OC(=O)N1CCC[C@@H]1CNC(=O)Nc1nc2c(s1)-c1nc(-c3ccccc3Cl)ncc1CC2
< 0.8 | Cn1cc(CNC(=O)Nc2nc3c(s2)-c2nc(-c4ccccc4F)ncc2CC3)cn1
< 0.8 | NC(=O)Nc1nc2c(s1)-c1nc(-c3ccccc3F)ncc1CC2
< 0.8 | CN(C)C(=O)N[C@@H]1CCN(C(=O)Nc2nc3c(s2)-c2nc(-c4ccccc4Cl)ncc2CC3)C1
< 0.8 | CC(C)(C)OC(=O)N[C@H]1CC[C@H](CNC(=O)Nc2nc3c(s2)-c2nc(-c4ccccc4Cl)ncc2CC3)CC1
< 0.8 | CC(C)(C)OC(=O)N1CCC[C@H]1CNC(=O)Nc1nc2c(s1)-c1nc(-c3ccccc3Cl)ncc1CC2
< 0.8 | CC(C)(C)OC(=O)Nc1cccc(CNC(=O)Nc2nc3c(s2)-c2nc(-c4ccccc4Cl)ncc2CC3)c1
< 0.8 | CN1CCN(C(=O)Nc2nc3c(s2)-c2nc(-c4ccccc4Cl)ncc2CC3)CC1
< 0.8 | N#Cc1ccc(CNC(=O)Nc2nc3c(s2)-c2nc(-c4ccccc4Cl)ncc2CC3)s1
< 0.8 | O=C(NCc1cccc(NC(=O)C2CC2)c1)Nc1nc2c(s1)-c1nc(-c3ccccc3Cl)ncc1CC2
< 0.8 | COc1ccc(OC)c(CNC(=O)Nc2nc3c(s2)-c2nc(-c4ccccc4Cl)ncc2CC3)c1
< 0.8 | O=C(Nc1nc2c(s1)-c1nc(-c3ccccc3Cl)ncc1CC2)N1CCCC1
< 0.8 | O=C(Nc1nc2c(s1)-c1nc(-c3ccccc3Cl)ncc1CC2)N1CC[C@@H](NC(=O)N2CCCC2)C1
< 0.8 | CC(C)(C)CNC(=O)CCNC(=O)Nc1nc2c(s1)-c1nc(-c3ccccc3Cl)ncc1CC2
< 0.8 | COC(=O)CNC(=O)Nc1nc2c(s1)-c1nc(-c3ccccc3Cl)ncc1CC2
< 0.8 | O=C(NCCCN1CCNC1=O)Nc1nc2c(s1)-c1nc(-c3ccccc3Cl)ncc1CC2
< 0.8 | O=C(NCc1cccc(N2CCNC2=O)c1)Nc1nc2c(s1)-c1nc(-c3ccccc3Cl)ncc1CC2
